Publication PMC6155812, “Synthesis, Anti-Breast Cancer Activity, and Molecular Docking Study of a New Group of Acetylenic Quinolinesulfonamide Derivatives” (Molecules : A Journal of Synthetic Chemistry and Natural …, 2017)
Read-outs that look alike come from different tables or passages of the source.

Legend:
[1] = test system: MCF-7 (human adenocarcinoma) cells; assay: WST-1 antiproliferative assay, MCF-7; type: cell-based; conditions: 3–4 days, 0.5–250 µM, neg = negative in concentration used; for IC50: read-out: IC50 ± SD, MCF-7
Excerpt: (§1) Encouraged by promising results in the field of antiproliferative derivatives of acetylenic sulfanylquinoline derivatives, in this study the decision was made to combine the biological potentials of sulfamoylquinoline and alkynyl moieties, with the intention of obtaining compounds with better activity against breast cancer cell lines. The SAR analyses of the acetylenic sufamoylquinoline were based on the cell growth inhibition potencies on the MCF-7 (human adenocarcinoma), MDA-MB-231 and T-47D (human ductal carcinoma) cells using the WST-1 assay. The results from the in vitro cytotoxicity assay are expressed as the concentration of compound (µM) that inhibited the proliferation of 50% of the tumor cells, compared to the control untreated cells (IC50). Cisplatin was used as a positive control to induce cell death.
(§2) The cell lines (MCF-7, MDA-MB-231, and nontumor HFF-1) were cultured and kept in Dubecco’s modified Eagle medium (DMEM) supplemented with 10% fetal bovine serum (FBS) 1.000 IU·mL^−1 penicillin and 10 mg·m^−1·mL^−1 streptomycin in atmosphere with 5% CO2 at 37 °C. The cells were seeded using a series of standard 96-well plates (Corning). Test compounds were prepared at a concentration of 5.0 mM dimethyl sulfoxide (DMSO). Freshly prepared dilutions of the test compounds in a culture medium at a concentration of 0.5–250 µM were added to the microtiter plates and the cells were grown for 3–4 days. Solvent control (DMSO) was included to check its potential inhibitory activity at the concentration used. After incubation, the cell growth rate was evaluated by performing a WST-1 assay. The amount of formazan produced was measured at 450 nm. Expermentally determined absorbance values were transformed into the cell percentage of growth as described previously. Each test point was performed in triplicate for each tested compound cocentration. The results were statistically analyzed using PraphPad Prism 6 software (Graphpad Software, Inc., La Jolla, CA, USA).

[2] = test system: MDA-MB-231 cells; assay: WST-1 antiproliferative assay, MDA-MB-231; type: cell-based, human; conditions: 3–4 days, 0.5–250 µM, neg = negative in concentration used, read-out: IC50 ± SD, MDA-MB-231
Excerpt: as §1, §2

[3] = test system: HFF-1 normal fibroblasts; assay: WST-1 cytotoxicity assay, normal fibroblasts HFF-1; type: cell-based, human; conditions: 3–4 days, 0.5–250 µM, neg = negative in concentration used; for IC50: read-out: IC50 ± SD, HFF-1
Excerpt: as §1, §2

[4] = test system: T47D (human ductal carcinoma) cells; assay: WST-1 antiproliferative assay, T47D; type: cell-based; conditions: WST-1 assay, 3–4 days, 0.5–250 µM, neg = negative in concentration used; for IC50: read-out: IC50 ± SD, T47D
Excerpt: as §1, §2

[5] = Homo sapiens, MDA-MB-231, WST-1 assay
[6] = Homo sapiens, MCF7, WST-1 assay
[7] = Homo sapiens, HFF-1, WST-1 assay

## C#CCSc1c(S(=O)(=O)N(C)CC#C)cnc2ccccc12 [5c, 4-(3-Propynylthio)-3-[N-methyl-N-(3-propynyl)sulfamoyl]quinoline]
[1]; WST-1 assay
  IC50 ± SD, MCF-7: neg
other
  melting point: 101 to 102 °C
[2]; [5]
  IC50: 116 ± 2.13 µM
[3]; WST-1 assay
  IC50 ± SD, HFF-1: neg
[4]; Homo sapiens, T47D
  IC50: 205 ± 6.02 µM

## C#CCN(C)S(=O)(=O)c1ccc2nc(Cl)ccc2c1 [2b, 2-Chloro-6-[N-methyl-N-(3-propynyl)sulfamoyl]quinoline]
[1]; [6]
  IC50: 22.9 ± 1.45 µM
other
  melting point: 140 to 141 °C
[2]; [5]
  IC50: 0.24 ± 0.01 µM
[3]; WST-1 assay
  IC50 ± SD, HFF-1: neg
[4]; Homo sapiens, T47D
  IC50: 0.3 ± 0.03 µM

## C#CCN(C)S(=O)(=O)c1cccc2c(Cl)ccnc12 [2f, 4-Chloro-8-[N-methyl-N-(3-propynyl)sulfamoyl]quinoline]
[1]; [6]
  IC50: 61.2 ± 1.65 µM
other
  melting point: 130 to 133 °C
[2]; [5]
  IC50: 204 ± 3.1 µM
[3]; [7]
  IC50: 153 ± 3 µM
[4]; Homo sapiens, T47D
  IC50: 295.6 ± 2.56 µM

## C#CCSc1nc2ccccc2cc1S(=O)(=O)N(C)CC#C [5a, 2-(3-Propynylthio)-3-[N-methyl-N-(3-propynyl)sulfamoyl]quinoline]
[1]; [6]
  IC50: 288 ± 3.45 µM
other
  melting point: 100 to 101 °C
[2]; [5]
  IC50: 11.8 ± 0.87 µM
[3]; WST-1 assay
  IC50 ± SD, HFF-1: neg
[4]
  IC50 ± SD, T47D: neg

## C#CCN(C)S(=O)(=O)c1cnc2ccccc2c1Cl [2c, 4-Chloro-3-[N-methyl-N-(3-propynyl)sulfamoyl]quinoline]
other
  melting point: 120 to 121 °C
[2]; [5]
  IC50: 0.27 ± 0.02 µM
[3]; [7]
  IC50: 85.4 ± 1.6 µM
[4]; Homo sapiens, T47D
  IC50: 2.24 ± 0.11 µM

## O=S(=O)(Cl)c1cnc2ccc(Cl)cc2c1 [compound 13, 6-chloro-3-chlorosulfonylquinoline]
other
  melting point: 109 to 110 °C

## C#CC[Se]c1ccc2cc(S(=O)(=O)N(C)CC#C)ccc2n1 [6b, 2-(3-Propynylseleno)-6-[N-methyl-N-(3-propynyl)sulfamoyl]quinoline]
[1]; [6]
  IC50: 22.72 ± 0.12 µM
other
  melting point: 179 to 180 °C
[2]; WST-1 assay
  IC50: 1.32 ± 0.12 µM
[3]; [7]
  IC50: 92.9 ± 2 µM
[4]; Homo sapiens, T47D
  IC50: 10.6 ± 0.15 µM

## C#CCSc1ccnc2ccc(S(=O)(=O)N(C)CC#C)cc12 [5d, 4-(3-Propynylthio)-6-[N-methyl-N-(3-propynyl)sulfamoyl]quinoline]
[1]; [6]
  IC50: 236.8 ± 2.34 µM
other
  melting point: 139 to 140 °C
[2]; [5]
  IC50: 202 ± 5.46 µM
[3]; WST-1 assay
  IC50 ± SD, HFF-1: neg
[4]
  IC50 ± SD, T47D: neg

## C#CC[Se]c1ccnc2ccc(S(=O)(=O)N(C)CC#C)cc12 [6d, 4-(3-Propynylseleno)-6-[N-methyl-N-(3-propynyl)sulfamoyl]quinoline]
[1]; [6]
  IC50: 259 ± 5.45 µM
other
  melting point: 139 to 140 °C
[2]; [5]
  IC50: 0.68 ± 0.09 µM
[3]; [7]
  IC50: 331 ± 4 µM
[4]
  IC50 ± SD, T47D: neg

## C#CCN(C)S(=O)(=O)c1ccc2nccc(Cl)c2c1 [2d, 4-Chloro-6-[N-methyl-N-(3-propynyl)sulfamoyl]quinoline]
[1]; [6]
  IC50: 233.8 ± 1.56 µM
other
  melting point: 124 to 125 °C
[2]; [5]
  IC50: 180 ± 2.35 µM
[3]; [7]
  IC50: 425.2 ± 1.46 µM
[4]; Homo sapiens, T47D
  IC50: 292 ± 2.34 µM

## C#CCN(C)S(=O)(=O)c1cc2ccccc2nc1Cl [2a, 2-Chloro-3-[N-methyl-N-(3-propynyl)sulfamoyl]quinoline]
[1]; [6]
  IC50: 351 ± 6.32 µM
other
  melting point: 110 to 111 °C
[2]; [5]
  IC50: 140 ± 1.98 µM
[3]; WST-1 assay
  IC50 ± SD, HFF-1: neg
[4]
  IC50 ± SD, T47D: neg ^1

## C#CCSc1ccnc2cc(S(=O)(=O)N(C)CC#C)ccc12 [5e, 4-(3-Propynylthio)-7-[N-methyl-N-(3-propynyl)sulfamoyl]quinoline]
[1]; [6]
  IC50: 0.27 ± 0.03 µM
other
  melting point: 113 to 114 °C
[2]; [5]
  IC50: 7.12 ± 0.78 µM
[3]; [7]
  IC50: 276.1 ± 2.6 µM
[4]; listed as 4-(3-propynylthio)-7-[N-methyl-N-(3-propynyl)sulfamoyl]quinoline
  IC50: 0.07 µM
[4]
  IC50: 0.21 ± 0.01 µM

## C#CCN(C)S(=O)(=O)c1ccc2c(Cl)ccnc2c1 [2e, 4-Chloro-7-[N-methyl-N-(3-propynyl)sulfamoyl]quinoline]
other
  melting point: 119 to 120 °C
[2]; [5]
  IC50: 59.3 ± 1.56 µM
[3]; WST-1 assay
  IC50 ± SD, HFF-1: neg
[4]; Homo sapiens, T47D
  IC50: 26.8 ± 0.67 µM

## C#CC[Se]c1nc2ccccc2cc1S(=O)(=O)N(C)CC#C [6a, 2-(3-Propynylseleno)-3-[N-methyl-N-(3-propynyl)sulfamoyl]quinoline]
[1]; [6]
  IC50: 237.9 ± 2.11 µM
other
  melting point: 109 to 110 °C
[2]; [5]
  IC50: 0.42 ± 0.01 µM
[3]; WST-1 assay
  IC50 ± SD, HFF-1: neg
[4]; Homo sapiens, T47D
  IC50: 146 ± 1.98 µM

## C#CCSc1ccnc2c(S(=O)(=O)N(C)CC#C)cccc12 [5f, 4-(3-Propynylthio)-8-[N-methyl-N-(3-propynyl)sulfamoyl]quinoline]
[1]; [6]
  IC50: 13.09 ± 0.11 µM
other
  melting point: 119 to 120 °C
[2]; [5]
  IC50: 21.2 ± 0.96 µM
[3]; [7]
  IC50: 366.1 ± 1.46 µM
[4]; Homo sapiens, T47D
  IC50: 0.27 ± 0.03 µM

## C#CC[Se]c1c(S(=O)(=O)N(C)CC#C)cnc2ccccc12 [6c, 4-(3-Propynylseleno)-3-[N-methyl-N-(3-propynyl)sulfamoyl]quinoline]
[1]; [6]
  IC50: 113 µM
other
  melting point: 122 to 123 °C
[2]; [5]
  IC50: 17.6 ± 0.87 µM
[3]; WST-1 assay
  IC50 ± SD, HFF-1: neg
[4]; Homo sapiens, T47D
  IC50: 313 ± 7.98 µM

## C#CCSc1ccc2cc(S(=O)(=O)N(C)CC#C)ccc2n1 [5b, 2-(3-Propynylthio)-6-[N-methyl-N-(3-propynyl)sulfamoyl]quinoline]
[1]; [6]
  IC50: 18.4 ± 0.98 µM
other
  melting point: 164 to 165 °C
[2]; WST-1 assay
  IC50: 0.27 ± 0.03 µM
[3]; WST-1 assay
  IC50 ± SD, HFF-1: neg
[4]; Homo sapiens, T47D
  IC50: 182 ± 3.23 µM

## C#CCN(C)S(=O)(=O)c1ccc2ncc(S(=O)(=O)N(C)CC#C)cc2c1 [compound 12, 3,6-Di[N-methyl-N-(3-propynyl)sulfamoyl]quinoline]
[1]; [6]
  IC50: 3.14 ± 0.34 µM
other
  melting point: 138 to 139 °C
[2]; [5]
  IC50: 2.86 ± 0.34 µM
[3]; [7]
  IC50: 375.5 ± 3 µM
[4]; Homo sapiens, T47D
  IC50: 2.5 ± 0.09 µM

## C#CCN(C)S(=O)(=O)c1cnc2ccc(Cl)cc2c1 [compound 14, 6-Chloro-3-[N-methyl-N-(3-propynyl)sulfamoyl]quinoline]
[1]; [6]
  IC50: 118 ± 2.04 µM
other
  melting point: 146 to 147 °C
[2]; [5]
  IC50: 26.8 ± 1.45 µM
[3]; [7]
  IC50: 71.8 ± 1.6 µM
[4]; Homo sapiens, T47D
  IC50: 11.7 ± 1.11 µM

## N.N.[Cl][Pt][Cl] [Cisplatin, reference compound]
[1]; WST-1 assay
  IC50: 77.76 ± 0.76 µM
[2]; WST-1 assay
  IC50: 17.6 ± 0.31 µM
[3]; WST-1 assay
  IC50: 7.2 ± 0.6 µM
[4]
  IC50: 30.3 ± 0.34 µM

## C#CCSc1ccc2ncc(SCC#C)cc2c1 [compound 11, 3,6-Di(3-propynylthio)quinoline]
[1]; [6]
  IC50: 7.36 ± 0.45 µM
other
  melting point: 97 to 98 °C
[2]; [5]
  IC50: 8.73 ± 0.78 µM
[3]; [7]
  IC50: 176 ± 3 µM
[4]; Homo sapiens, T47D
  IC50: 127 ± 2.01 µM
